Experimental data published in ChEMBL document CHEMBL1137659, “Molecular epidemiology of clinical isolates of carbapenem-resistant Acinetobacter spp. from Chinese hospitals” (2007).
≈ marks a conversion by molar mass, not a printed value.

Tests used:
Acinetobacter baumannii [1] = assay: Antimicrobial activity against imipenem and meropenem-resistant Acinetobacter baumannii isolate FW-F1 by CLSI agar dilution method; type: functional
Acinetobacter baumannii [2] = assay: Antimicrobial activity against imipenem and meropenem-resistant Acinetobacter baumannii isolate PU4A22 by CLSI agar dilution method; type: functional
Acinetobacter baumannii [3] = assay: Antimicrobial activity against imipenem and meropenem-resistant Acinetobacter baumannii isolate DL34 by CLSI agar dilution method; type: functional
[4] = tested on: Acinetobacter genomosp. 3; assay: Antimicrobial activity against imipenem and meropenem-resistant Acinetobacter genospecies 3 isolate PU78 by CLSI agar dilution method; details: Acinetobacter genomosp. 3, isolate PU78
[5] = tested on: Acinetobacter phenon 6/ct 13TU (Acinetobacter sp.); assay: Antimicrobial activity against imipenem and meropenem-resistant Acinetobacter phenon 6/ct 13TU isolate PU86 by CLSI agar dilution method
[6] = tested on: Acinetobacter phenon 6/ct 13TU; assay: Antimicrobial activity against imipenem and meropenem-resistant Acinetobacter phenon 6/ct 13TU isolate FZ4A18 by CLSI agar dilution method
Acinetobacter baumannii [7] = assay: Antimicrobial activity against imipenem and meropenem-resistant Acinetobacter baumannii isolate PU4A1 by CLSI agar dilution method; type: functional
Acinetobacter baumannii [8] = assay: Antimicrobial activity against imipenem and meropenem-resistant Acinetobacter baumannii isolate ZJ58 by CLSI agar dilution method; type: functional
Acinetobacter baumannii [9] = assay: Antimicrobial activity against imipenem and meropenem-resistant Acinetobacter baumannii isolate ZJ36 by CLSI agar dilution method; type: functional
Acinetobacter baumannii [10] = assay: Antimicrobial activity against imipenem and meropenem-resistant Acinetobacter baumannii isolate FZ84 by CLSI agar dilution method; type: functional
Acinetobacter baumannii [11] = assay: Antimicrobial activity against imipenem and meropenem-resistant Acinetobacter baumannii isolate BJ3-23 by CLSI agar dilution method; type: functional
Acinetobacter baumannii [12] = assay: Antimicrobial activity against imipenem and meropenem-resistant Acinetobacter baumannii isolate CY7 by CLSI agar dilution method; type: functional
Acinetobacter baumannii [13] = assay: Antimicrobial activity against imipenem and meropenem-resistant Acinetobacter baumannii isolate ZJ32 by CLSI agar dilution method; type: functional
Acinetobacter phenon 5 = assay: Antimicrobial activity against imipenem and meropenem-resistant Acinetobacter phenon 5 isolate PUA6 by CLSI agar dilution method
[14] = tested on: Acinetobacter genospecies 13TU; assay: Antimicrobial activity against imipenem and meropenem-resistant Acinetobacter genospecies 13TU isolate CY6 by CLSI agar dilution method
Acinetobacter baumannii [15] = assay: Antimicrobial activity against imipenem and meropenem-resistant Acinetobacter baumannii isolate NJ59 by CLSI agar dilution method; type: functional
Acinetobacter baumannii [16] = assay: Antimicrobial activity against imipenem and meropenem-resistant Acinetobacter baumannii isolate JN45 by CLSI agar dilution method; type: functional
Acinetobacter baumannii [17] = assay: Antimicrobial activity against imipenem and meropenem-resistant Acinetobacter baumannii isolate BJ52 by CLSI agar dilution method; type: functional
Acinetobacter baumannii [18] = assay: Antimicrobial activity against imipenem and meropenem-resistant Acinetobacter baumannii isolate BJ55 by CLSI agar dilution method; type: functional
Acinetobacter baumannii [19] = assay: Antimicrobial activity against imipenem and meropenem-resistant Acinetobacter baumannii isolate PU73 by CLSI agar dilution method; type: functional
Acinetobacter baumannii [20] = assay: Antimicrobial activity against imipenem and meropenem-resistant Acinetobacter baumannii isolate BJ3-9 by CLSI agar dilution method; type: functional
Acinetobacter baumannii [21] = assay: Antimicrobial activity against imipenem and meropenem-resistant Acinetobacter baumannii isolate ZJ49 by CLSI agar dilution method; type: functional
[22] = tested on: Acinetobacter genospecies 3; assay: Antimicrobial activity against imipenem and meropenem-resistant Acinetobacter genospecies 3 isolate PUA7 by CLSI agar dilution method
[23] = tested on: Acinetobacter genospecies 10/11; assay: Antimicrobial activity against imipenem and meropenem-resistant Acinetobacter genospecies 10/11 isolate ZS5 by CLSI agar dilution method
[24] = tested on: Acinetobacter genospecies 10/11; assay: Antimicrobial activity against imipenem and meropenem-resistant Acinetobacter genospecies 10/11 isolate ZS15 by CLSI agar dilution method
Acinetobacter baumannii [25] = assay: Antimicrobial activity against imipenem and meropenem-resistant Acinetobacter baumannii isolate PUA1 by CLSI agar dilution method; type: functional
[26] = tested on: Acinetobacter genospecies 3; assay: Antimicrobial activity against imipenem and meropenem-resistant Acinetobacter genospecies 3 isolate PU78 by CLSI agar dilution method
[27] = tested on: Acinetobacter phenon 6/ct 13TU; assay: Antimicrobial activity against imipenem and meropenem-resistant Acinetobacter phenon 6/ct 13TU isolate PU86 by CLSI agar dilution method

Row | Compound | MIC (Acinetobacter baumannii [1]) [µg/mL] | MIC (Acinetobacter baumannii [2]) [µg/mL] | MIC (Acinetobacter baumannii [3]) [µg/mL] | MIC [6] [µg/mL] | MIC (Acinetobacter baumannii [7]) [µg/mL] | MIC (Acinetobacter baumannii [8]) [µg/mL] | MIC (Acinetobacter baumannii [9]) [µg/mL] | MIC (Acinetobacter baumannii [10]) [µg/mL] | MIC (Acinetobacter baumannii [11]) [µg/mL] | MIC (Acinetobacter baumannii [12]) [µg/mL] | MIC (Acinetobacter baumannii [13]) [µg/mL] | MIC (Acinetobacter phenon 5) [µg/mL] | MIC [14] [µg/mL] | MIC (Acinetobacter baumannii [15]) [µg/mL] | MIC (Acinetobacter baumannii [16]) [µg/mL] | MIC (Acinetobacter baumannii [17]) [µg/mL] | MIC (Acinetobacter baumannii [18]) [µg/mL] | MIC (Acinetobacter baumannii [19]) [µg/mL] | MIC (Acinetobacter baumannii [20]) [µg/mL] | MIC (Acinetobacter baumannii [21]) [µg/mL] | further results
1 | CN(C)c1ccc(O)c2c1C[C@H]1C[C@H]3[C@H](N(C)C)C(O)=C(C(N)=O)C(=O)[C@@]3(O)C(O)=C1C2=O [MINOCYCLINE] | 2 (≈ 4.37 µM) | 2 (≈ 4.37 µM) | 8 (≈ 17.5 µM) | 0.5 (≈ 1.09 µM) | 2 (≈ 4.37 µM) | 16 (≈ 35 µM) | 32 (≈ 69.9 µM) | 4 (≈ 8.74 µM) | 8 (≈ 17.5 µM) | 0.5 (≈ 1.09 µM) | 16 (≈ 35 µM) | 0.5 (≈ 1.09 µM) | 0.25 (≈ 0.546 µM) | 4 (≈ 8.74 µM) | 0.5 (≈ 1.09 µM) | 8 (≈ 17.5 µM) | 16 (≈ 35 µM) | 8 (≈ 17.5 µM) | 4 (≈ 8.74 µM) | 32 (≈ 69.9 µM) | MIC [4]: ≤ 0.125 µg/mL; MIC [5]: ≤ 0.125 µg/mL; MIC [22]: 0.5 µg/mL (≈ 1.09 µM); MIC [23]: 8 µg/mL (≈ 17.5 µM); MIC [24]: 0.25 µg/mL (≈ 0.546 µM); MIC (Acinetobacter baumannii [25]): 4 µg/mL (≈ 8.74 µM)
2 | COLISTIN | 0.5 | 1 | 0.5 | 1 | 0.5 | 1 | 1 | 0.5 | 1 | 0.5 | 1 | 0.5 | 0.5 | 0.5 | 1 | 1 | 0.5 | 1 | 1 | 1 | MIC [26]: 1 µg/mL; MIC [27]: 1 µg/mL; MIC [22]: 0.5 µg/mL; MIC [23]: 0.5 µg/mL; MIC [24]: 1 µg/mL; MIC (Acinetobacter baumannii [25]): 0.5 µg/mL
